Literature values, collected in US10093983B2 (priority 2011, dated 2018).

Target: T1, D351Y or D351E mutant ESR1 (Homo sapiens, UniProt P03372, D351Y)
T1 sequence (P03372 1-595 D351Y): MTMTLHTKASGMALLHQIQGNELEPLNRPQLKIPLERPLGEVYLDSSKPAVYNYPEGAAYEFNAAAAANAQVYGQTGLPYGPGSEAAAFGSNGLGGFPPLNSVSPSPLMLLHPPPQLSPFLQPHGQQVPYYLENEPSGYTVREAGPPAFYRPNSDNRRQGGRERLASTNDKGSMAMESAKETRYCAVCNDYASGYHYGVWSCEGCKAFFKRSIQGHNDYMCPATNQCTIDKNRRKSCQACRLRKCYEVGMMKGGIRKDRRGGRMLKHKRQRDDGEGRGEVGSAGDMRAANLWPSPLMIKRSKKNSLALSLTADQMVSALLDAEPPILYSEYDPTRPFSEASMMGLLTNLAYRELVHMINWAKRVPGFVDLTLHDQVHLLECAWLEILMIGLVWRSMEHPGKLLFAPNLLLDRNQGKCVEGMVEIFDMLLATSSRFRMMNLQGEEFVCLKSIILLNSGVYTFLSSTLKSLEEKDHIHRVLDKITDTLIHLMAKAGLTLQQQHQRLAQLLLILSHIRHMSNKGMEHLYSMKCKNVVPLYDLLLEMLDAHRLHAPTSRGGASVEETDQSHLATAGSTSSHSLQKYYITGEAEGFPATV

C[C@]12CC[C@@H]3c4ccc(O)cc4C[C@@H](CCCCCCCCC[S+]([O-])CCCC(F)(F)C(F)(F)F)[C@H]3[C@@H]1CC[C@@H]2O (stereo partly shown) [fulvestrant]
effects of the antiestrogen upon mutating D351 to tyrosine: unaffected
